In the oligonucleotide strings, read from the 5' end, every base follows the letter of its sugar. An asterisk marks phosphorothioate; unmarked linkages are phosphodiester. Other units and linkages are bracketed, terminal groups are in braces. A string of capitals states the bases alone. {NAG37} = tridentate N-acetyl-galactosamine targeting ligand, structure (NAG37)s; [invAb] = inverted abasic unit; m = 2'-O-methyl; f = 2'-fluoro
Tests used:
ANGPTL3 gene [1] = assay: Example 13: serum total cholesterol in HFCS diet-fed Rhesus monkeys; type: in vivo; conditions: for Avg Chol (Cholesterol) Normalized to Pre-Treatment (Fasted): 4.0 mg/kg sc on day 1 and day 29
Procedure: (§1) ANGPTL3 RNAi agent AD05488 was further evaluated in high-fructose corn syrup (HFCS) diet-fed Rhesus monkeys. Rhesus monkeys were placed on an HFCS diet 37 days prior to dosing. These animals were known to develop increased plasma triglycerides greater than 180 mg/dL on the HFCS diet. On day 1 and again on day 29, four (4) Rhesus monkeys were administered a subcutaneous injection containing 4.0 mg/kg of ANGPTL3 RNAi agent AD05488 formulated in saline (n=4). Two additional Rhesus monkeys were administered normal saline control.
(§2) Fasted blood samples were drawn for analysis, and serum samples were analyzed on days-8 (predose), 8, 15, 21, 29, and 36. ANGPTL3 expression levels, triglycerides, total cholesterol, high-density lipoprotein (HDL), and low-density lipoprotein (LDL) in serum were measured on a Cobas® Integra 400 (Roche Diagnostics), according to the manufacturer's recommendations.
(§3) The ANGPTL3 protein levels, triglyceride levels, total cholesterol levels, HDL levels, and LDL levels for each animal were normalized. For normalization, the level of ANGPTL3 protein, triglyceride, HDL, and total cholesterol, respectively, for each animal at a time point, was divided by the pre-treatment level of expression in that animal (in this case at day −8) to determine the ratio of expression “normalized to pre-treatment.”

ANGPTL3 protein = assay: Example 13: serum ANGPTL3 protein in HFCS diet-fed Rhesus monkeys; type: in vivo; conditions: for Avg ANGPTL3 Protein Normalized to Pre-Treatment (Fasted): 4.0 mg/kg sc on day 1 and day 29
Procedure: as §1, §2, §3

ANGPTL3 gene [2] = assay: Example 12: serum triglycerides in LDLR knockout mice; type: in vivo, LDLR KO mice
Description: To evaluate the effect of RNAi agent administration in a disease model, mice having a genetic mutation for the LDL receptor (referred to herein as LDLR KO mice) were commercially obtained (The Jackson Laboratory). The LDLR KO mice are homozygous for the Ldlr^tm1Her mutation, and have elevated serum cholesterol levels, particularly when placed on a high fat diet. For three weeks prior to the onset of the study, thirty-nine (39) LDLR KO mice were placed on a high fat diet (Teklad Custom Diets TD.88137). An additional eight (8) LDLR KO mice were placed on a normal chow diet over the same three-week period. Pre-dose serum samples were taken on day −15 and day −1 after a four hour fast. At day 1, each mouse was given a single subcutaneous administration of 200 μl/30 g animal body weight containing the respective mg/kg dose of an ANGPTL3 RNAi agent in D5W (dextrose in 5% water), control (D5W) with no RNAi agent, or a control RNAi agent that included a nucleotide sequence designed to target the Hepatitis B Virus (HBV) genome. A second injection of the same formulation was administered to the animals on day 29. The dosing regimen for the study is recited in the following Table 60:
Each mouse remained on its respective diet through the duration of study. The RNAi agent tested (AD05488) included a modified sequence and an N-acetyl-galactosamine-containing targeting ligand conjugated to the 5′ terminal end of the sense strand. (See Tables 3, […] modified sequences and targeting ligand structures). The injections were performed between the skin and muscle (i.e. subcutaneous injections) into the loose skin over the neck and shoulder area. Serum was collected on days 8, 15, 22, 29 (pre-second dose), 36, 43, 50, and 57. LDLR KO mice were fasted for four hours prior to each collection. On day 15, four (4) LDLR KO mice from Groups 1, 2, and 3 (i.e., the groups being administered the high fat “Western” diet) were sacrificed after serum collection, and on day 29, an additional four (4) LDLR KO mice from Groups 1, 2, and 3 were sacrificed after serum collection, for the purpose of performing mRNA assessments.
ANGPTL3 protein levels in serum were measured by ELISA assay (R&D Systems), according to the manufacturer's recommendations. Triglycerides, total cholesterol, high-density lipoprotein (HDL), and low-density lipoprotein (LDL) in serum were measured on a Cobas® Integra 400 (Roche Diagnostics), according to the manufacturer's recommendations.
The ANGPTL3 protein levels, triglyceride levels, total cholesterol levels, HDL levels, and LDL levels for each animal were normalized. For normalization, respective levels of ANGPTL3 protein, TG, total cholesterol, HDL, or LDL for each animal at a time point was divided by the average pre-treatment level of expression in that animal (in this case the average of day −15 and day −1) to determine the ratio of expression “normalized to pre-treatment.”
Expression at a specific time point was then normalized to the D5W control group that was administered the same diet (i.e., either the high fat “Western” diet or the normal chow-fed diet) by dividing the “normalized to pre-treatment” ratio for an individual animal by the mean “normalized to pretreatment” ratio of all mice in the D5W control group on the respective same diet, resulting in expression for each time point normalized to that in the control group.

AD05488: RNAi agent duplex: antisense AM07235-AS, sense AM07234-SS (antisense mU*fA*mC*fUmGfAmUfCmAfAmAfUmAfUmGfUmUfGmAfG*mC; sense {NAG37}*[invAb]*mGmCmUmCmAmAmCmAfUfAfUmUmUmGmAmUmCmAmGmUmA*[invAb])
reductions in total cholesterol levels (ANGPTL3 gene [1]; 4.0 mg/kg on days 1 and 29, HFCS diet-fed Rhesus monkeys): reductions | Avg Chol (Cholesterol) Normalized to Pre-Treatment (Fasted) (ANGPTL3 gene [1]; Day 8): 0.734 | Avg Chol (Cholesterol) Normalized to Pre-Treatment (Fasted) (ANGPTL3 gene [1]; Day 15): 0.641 | Avg Chol (Cholesterol) Normalized to Pre-Treatment (Fasted) (ANGPTL3 gene [1]; Day 21): 0.579 | Avg Chol (Cholesterol) Normalized to Pre-Treatment (Fasted) (ANGPTL3 gene [1]; Day 29): 0.549 | Avg Chol (Cholesterol) Normalized to Pre-Treatment (Fasted) (ANGPTL3 gene [1]; Day 36): 0.459 | Avg ANGPTL3 Protein Normalized to Pre-Treatment (Fasted) (ANGPTL3 protein; Day 8): 0.229 | Avg ANGPTL3 Protein Normalized to Pre-Treatment (Fasted) (ANGPTL3 protein; Day 15): 0.154 | Avg ANGPTL3 Protein Normalized to Pre-Treatment (Fasted) (ANGPTL3 protein; Day 21): 0.116 | Avg ANGPTL3 Protein Normalized to Pre-Treatment (Fasted) (ANGPTL3 protein; Day 29): 0.114 | Avg ANGPTL3 Protein Normalized to Pre-Treatment (Fasted) (ANGPTL3 protein; Day 36): 0.064 | reduction in ANGPTL3 protein compared to pre-treatment (ANGPTL3 protein; each of the measured time points, 4.0 mg/kg on days 1 and 29, HFCS diet-fed Rhesus monkeys): significant reduction | reductions in TG levels (ANGPTL3 gene [2]; 3.0 mg/kg on days 1 and 29 (Groups 2 and 5), LDLR KO mice): significant reductions | Avg TG (Triglycerides) Normalized to Pre-Treatment and Control (Diet Matched) (ANGPTL3 gene [2]; 3.0 mg/kg sc day 1, High Fat Diet, Day 8): 0.121 | Avg TG (Triglycerides) Normalized to Pre-Treatment and Control (Diet Matched) (ANGPTL3 gene [2]; 3.0 mg/kg sc day 1, High Fat Diet, Day 15): 0.086 | Avg TG (Triglycerides) Normalized to Pre-Treatment and Control (Diet Matched) (ANGPTL3 gene [2]; 3.0 mg/kg sc day 1, High Fat Diet, Day 22): 0.094 | Avg TG (Triglycerides) Normalized to Pre-Treatment and Control (Diet Matched) (ANGPTL3 gene [2]; 3.0 mg/kg sc day 1, High Fat Diet, Day 29 (pre-second dose)): 0.096 | Avg TG (Triglycerides) Normalized to Pre-Treatment and Control (Diet Matched) (ANGPTL3 gene [2]; 3.0 mg/kg sc day 1, Normal Diet, Day 8): 0.472 | Avg TG (Triglycerides) Normalized to Pre-Treatment and Control (Diet Matched) (ANGPTL3 gene [2]; 3.0 mg/kg sc day 1, Normal Diet, Day 15): 0.503 | Avg TG (Triglycerides) Normalized to Pre-Treatment and Control (Diet Matched) (ANGPTL3 gene [2]; 3.0 mg/kg sc day 1, Normal Diet, Day 22): 0.473 | Avg TG (Triglycerides) Normalized to Pre-Treatment and Control (Diet Matched) (ANGPTL3 gene [2]; 3.0 mg/kg sc day 1, Normal Diet, Day 29 (pre-second dose)): 0.480 | Avg TG (Triglycerides) Normalized to Pre-Treatment and Control (Diet Matched) (ANGPTL3 gene [2]; 3.0 mg/kg sc days 1 and 29, High Fat Diet, Day 36): 0.104 | Avg TG (Triglycerides) Normalized to Pre-Treatment and Control (Diet Matched) (ANGPTL3 gene [2]; 3.0 mg/kg sc days 1 and 29, High Fat Diet, Day 43): 0.084 | Avg TG (Triglycerides) Normalized to Pre-Treatment and Control (Diet Matched) (ANGPTL3 gene [2]; 3.0 mg/kg sc days 1 and 29, High Fat Diet, Day 50): 0.091 | Avg TG (Triglycerides) Normalized to Pre-Treatment and Control (Diet Matched) (ANGPTL3 gene [2]; 3.0 mg/kg sc days 1 and 29, High Fat Diet, Day 57): 0.079 | Avg TG (Triglycerides) Normalized to Pre-Treatment and Control (Diet Matched) (ANGPTL3 gene [2]; 3.0 mg/kg sc days 1 and 29, Normal Diet, Day 36): 0.548 | Avg TG (Triglycerides) Normalized to Pre-Treatment and Control (Diet Matched) (ANGPTL3 gene [2]; 3.0 mg/kg sc days 1 and 29, Normal Diet, Day 43): 0.348 | Avg TG (Triglycerides) Normalized to Pre-Treatment and Control (Diet Matched) (ANGPTL3 gene [2]; 3.0 mg/kg sc days 1 and 29, Normal Diet, Day 50): 0.625 | Avg TG (Triglycerides) Normalized to Pre-Treatment and Control (Diet Matched) (ANGPTL3 gene [2]; 3.0 mg/kg sc days 1 and 29, Normal Diet, Day 57): 0.438

Source: US12729377B2, “RNAi agents and compositions for inhibiting expression of angiopoietin-like 3 (ANGPTL3), and methods of use” (Arrowhead Pharmaceuticals, Inc., priority 2017, dated 2026)
